According to article PMC11879280, “Antimicrobial activity of peptoids against Metallo-β-lactamase-producing Klebsiella pneumoniae, Acinetobacter baumannii, Pseudomonas aeruginosa, and other WHO priority pathogens, including Candida auris” (Journal of Applied Microbiology, 2025):
In brackets after ≈: the same amount, converted by molar mass. Read-outs that look alike come from different tables or passages of the source. Each block holds one compound with its values, some of them ahead of it.

Tests used:
C. auris CBS10913 [1] = assay: microbe, parasite or virus in culture; conditions: Candidozyma auris, read-out: MIC against C. auris
C. auris CBS10913 [2] = conditions: CBS 10 913; RPMI 1640 with MOPS, 5 × 10^3 CFU ml^−1; ≥90% reduction (≥50% for fluconazole)
[3] = test system: C. auris CBS12373 biofilm; format: cell-based, Candida auris; conditions: for Mature biofilm inhibition, blank corrected 570 nm, av. of readings: MTT absorbance
Protocol: To assess disruption of mature biofilms, 2 × 10^5 cells were cultured for 2 h in 96-well flat bottom microtiter plates at 37°C, washed, then incubated for 48 h in fresh media to form mature biofilm. […] For each activity test, the metabolic activities of the yeast cells in biofilms were measured by MTT reduction assay after washing the disrupted biofilm with PBS (Srivastava and Ahmad [2020]).

C. auris CBS12373 [4] = assay: Broth microdilution MIC; format: cell-based, Candida auris
C. auris CBS10913 [5] = assay: Checkerboard microdilution synergy test; format: cell-based, Candida auris
Protocol: (§1) The checkerboard microdilution test was performed to determine the fractional inhibitory concentration (FIC) of selected antimicrobials and assess whether the combination had synergistic, antagonistic, or indifferent effects (Anon [2016]) against strains of K. pneumoniae or C. auris. […] Additionally, a strain susceptible to ciprofloxacin was tested to observe the outcome of its combination with TM8 as a representative case from susceptible isolates. […] Then, 10 µl of bacteria (5 × 10^6 CFU ml^−1) or C. auris (2.5 × 10^4 CFU ml^−1) were added to each well, except for the sterility control well. […] The sterility control wells contained only MHB (or RPMI in case of C. auris), and the growth control contained 110 µl of microbial inoculum with no antimicrobials. Subsequently, the plates were incubated for 18- 24 hours at 36 ± 1 °C.
(§2) The FIC for each combination interaction was calculated as follows:
(§3) Then, the summation of FIC (ƩFIC) was calculated for each antimicrobial combination as follows: ƩFIC = FICA + FICB. The results were interpretated as follows: Synergy if ƩFIC ≤ 0.5; Additive if 0.5<ƩFIC ≤ 1; Indifference if […] ≤ 4; and Antagonism if ƩFIC > 4 (Odds [2003]). All antimicrobial synergy experiments were repeated in at least two independent runs.

C. auris CBS12373 [6] = assay: Checkerboard microdilution synergy test; format: cell-based, Candida auris
Protocol: as §1, §2, §3

[7] = test system: C. auris CBS12373 biofilm; assay: Initial biofilm inhibition, MTT reduction assay; format: cell-based, Candida auris
[8] = test system: C. auris CBS12373 biofilm; assay: Anti-adherence (biofilm prevention), MTT reduction assay; format: cell-based, Candida auris
Protocol: Finally, 3-(4,5-Dimethylthiazol 2-yl)-2,5-diphenyltetrazolium bromide (MTT) reduction assay was performed to observe the metabolic activities of C. auris.

K. pneumoniae JIE2709 = assay: MIC Test Strip MBL (imipenem, imipenem with EDTA); format: cell-based; conditions: Klebsiella pneumoniae, Mueller–Hinton agar, 20 h, 37°C, read-out: Imipenem IMI (MIC, MBL strip)
Protocol: (§4) The test was performed as per the manufacturer’s instructions. Briefly, the strips were applied to a lawn culture of bacteria maintained at 1.5 × 10^8 CFU ml^−1 on Mueller–Hinton agar (Oxoid, UK) and incubated for 20 h at 37°C.

K. pneumoniae JIE2713 = assay: MIC Test Strip MBL (imipenem, imipenem with EDTA); format: cell-based; conditions: Klebsiella pneumoniae, Mueller–Hinton agar, 20 h, 37°C, read-out: Imipenem IMI (MIC, MBL strip)
Protocol: as §4

A. baumannii 005 = assay: MIC Test Strip MBL (imipenem, imipenem with EDTA); format: cell-based; conditions: Acinetobacter baumannii, Mueller–Hinton agar, 20 h, 37°C, read-out: Imipenem IMI (MIC, MBL strip)
Protocol: as §4

A. baumannii 008 = assay: MIC Test Strip MBL (imipenem, imipenem with EDTA); format: cell-based; conditions: Acinetobacter baumannii, Mueller–Hinton agar, 20 h, 37°C, read-out: Imipenem IMI (MIC, MBL strip)
Protocol: as §4

A. baumannii 006 = assay: MIC Test Strip MBL (imipenem, imipenem with EDTA); format: cell-based; conditions: Acinetobacter baumannii, Mueller–Hinton agar, 20 h, 37°C, read-out: Imipenem IMI (MIC, MBL strip)
Protocol: as §4

P. aeruginosa 33 = assay: MIC Test Strip MBL (imipenem, imipenem with EDTA); format: cell-based; conditions: Pseudomonas aeruginosa, Mueller–Hinton agar, 20 h, 37°C, read-out: Imipenem IMI (MIC, MBL strip)
Protocol: as §4

A. baumannii 007 = assay: MIC Test Strip MBL (imipenem, imipenem with EDTA); format: cell-based; conditions: Acinetobacter baumannii, Mueller–Hinton agar, 20 h, 37°C, read-out: Imipenem IMI (MIC, MBL strip)
Protocol: as §4

P. aeruginosa AR-1270 = assay: MIC Test Strip MBL (imipenem, imipenem with EDTA); format: cell-based; conditions: Pseudomonas aeruginosa, AR1270, Mueller–Hinton agar, 20 h, 37°C, read-out: Imipenem IMI (MIC, MBL strip)
Protocol: as §4

[9] = Candidozyma auris, read-out: MIC of DrugB (alone, checkerboard)

- MIC (C. auris CBS10913 [1]): 3.3 µM (≈ 1.01 µg/mL)
- MIC against C. auris (C. auris CBS10913 [2]): 1 µg/mL (≈ 3.27 µM)
- MIC against C. auris (C. auris CBS12373 [4]; CBS 12 373, RPMI 1640 with MOPS, 5 × 10^3 CFU ml^−1, ≥90% reduction (≥50% for fluconazole)): 128 µg/mL (≈ 418 µM)
- MIC90 (C. auris CBS12373 [4]; Candidozyma auris, C. auris CBS12373 suspension used in the antibiofilm study, read-out: MIC90): 512 µg/mL (≈ 1670 µM)
- MIC (C. auris CBS12373 [4]; Candidozyma auris, CBS 12 373, value in brackets, read-out: MIC against C. auris): 418 µM (≈ 128 µg/mL)
- MIC (C. auris CBS10913 [5]; [9]): 1 µg/mL
- MIC (C. auris CBS12373 [6]; [9]): 128 µg/mL
Structure (SMILES): OC(Cn1cncn1)(Cn1cncn1)c1ccc(F)cc1F [Fluconazole, reference compound]
- Mature biofilm MBEC ([3]; C. auris CBS12373, 48 h biofilm, then 24 h with agent, MTT, ≥90% reduction): 2048 µg/mL
- Biofilm tolerance factor-eradication (MBEC/MIC) ([3]; C. auris CBS12373, MTT): 4
- Mature biofilm inhibition, blank corrected 570 nm, av. of readings ([3]; agent at 4 (growth control 1.918)): 2.95
- Mature biofilm inhibition, blank corrected 570 nm, av. of readings ([3]; agent at 8 (growth control 1.918)): 2.348
- Mature biofilm inhibition, blank corrected 570 nm, av. of readings ([3]; agent at 16 (growth control 1.918)): 2.232
- Mature biofilm inhibition, blank corrected 570 nm, av. of readings ([3]; agent at 32 (growth control 1.918)): 2.12
- Mature biofilm inhibition, blank corrected 570 nm, av. of readings ([3]; agent at 64 (growth control 1.918)): 2.186
- Mature biofilm inhibition, blank corrected 570 nm, av. of readings ([3]; agent at 128 (growth control 1.918)): 0.95
- Mature biofilm inhibition, blank corrected 570 nm, av. of readings ([3]; agent at 256 (growth control 1.918)): 0.345
- Mature biofilm inhibition, blank corrected 570 nm, av. of readings ([3]; agent at 512 (growth control 1.918)): 0.145
- Mature biofilm inhibition, blank corrected 570 nm, av. of readings ([3]; agent at 1024 (growth control 1.918)): 0.104
- Mature biofilm inhibition, blank corrected 570 nm, av. of readings ([3]; agent at 2048 (growth control 1.918)): 0.008
- FICDrugB (C. auris CBS10913 [5]; in combination with TM8): 0.0625
- MF of antibiotic (modulation factor) (C. auris CBS10913 [5]; in combination with TM8): 16
- FICDrugB (C. auris CBS12373 [6]; in combination with TM8): 0.0625
- MF of antibiotic (modulation factor) (C. auris CBS12373 [6]; in combination with TM8 (0.5× MIC)): 16
- Biofilm tolerance factor-inhibition (MBIC/MIC) [7]: 4
- Initial biofilm MBIC ([7]; 4 h adhesion, then 48 h with agent, ≥90% reduction): 2048 µg/mL
- Biofilm tolerance factor-prevention (BPC/MIC) [8]: 8
- Anti-adherence (BPC) ([8]; 2 h adhesion with agent, 48 h growth, ≥90% reduction): 4096 µg/mL

- MIC (K. pneumoniae JIE2709): 16 µg/mL (≈ 53.4 µM)
- MIC (K. pneumoniae JIE2713): 128 µg/mL (≈ 428 µM)
- MIC (A. baumannii 005): 64 µg/mL (≈ 214 µM)
- MIC (A. baumannii 008): 48 µg/mL (≈ 160 µM)
- MIC (A. baumannii 006): 64 µg/mL (≈ 214 µM)
- MIC (P. aeruginosa 33): 8 µg/mL (≈ 26.7 µM)
- MIC (A. baumannii 007): 96 µg/mL (≈ 321 µM)
- MIC (P. aeruginosa AR-1270): 16 µg/mL (≈ 53.4 µM)
Structure (SMILES): C[C@@H](O)[C@H]1C(=O)N2C(C(=O)O)=C(SCCN=CN)C[C@H]12 [Imipenem, imipenem]
